Assay results: ChEMBL document CHEMBL1201862, “PubChem BioAssay data set” (2004)
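Interpolation was linear, between the two tested concentrations surrounding the appropriate level; five concentrations were tested over 48 hours in 96-well plates. Here, GI50 denotes the concentration required for 50% inhibition of growth.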 Activity calls are given as the source filed them. No stated cut-off is given here; in the data, active = GI50 up to about 1.1 µM and inactive = higher.

Experiments:
Experiment in all cases: NCI tumour cell line growth inhibition, 48 h
TK-10 = test system: TK-10
MDA-MB-231 = test system: MDA-MB-231
Malme-3M = test system: Malme-3M
SK-OV-3 = test system: SK-OV-3
K562 = test system: K562
UO-31 = test system: UO-31
Hs-578T = test system: Hs-578T
SN12C = test system: SN12C
KM12 = test system: KM12
NCI/ADR-RES = test system: NCI/ADR-RES
T47D = test system: T47D
ACHN = test system: ACHN
SNB-75 = test system: SNB-75
HL-60 = test system: HL-60
OVCAR-3 = test system: OVCAR-3
SK-MEL-5 = test system: SK-MEL-5
LOX IMVI = test system: LOX IMVI
SNB-19 = test system: SNB-19
SF-539 = test system: SF-539

Measured: GI50

CCC1c2[nH]c3ccccc3c2C[C@H]2C(=O)NC(C)C(=O)N12 (some centres undefined)
inactive: TK-10 > 100 µM | MDA-MB-231 > 100 µM | Malme-3M > 100 µM | SK-OV-3 > 100 µM | K562 > 100 µM | UO-31 > 100 µM | Hs-578T > 100 µM | SN12C > 100 µM | KM12 > 100 µM | NCI/ADR-RES > 100 µM | T47D > 100 µM | ACHN > 100 µM | SNB-75 23.7 µM | HL-60 > 100 µM | OVCAR-3 > 100 µM | SK-MEL-5 > 100 µM | LOX IMVI > 100 µM | SNB-19 > 100 µM

O=C1c2ccccc2C(=O)c2c1ccc(C(=O)O)c2-c1ccc2ccccc2c1
inactive: TK-10 61.2 µM | MDA-MB-231 23.2 µM | Malme-3M 24.1 µM | SK-OV-3 31 µM | K562 25.9 µM | UO-31 21.2 µM | Hs-578T 23.9 µM | SN12C 29.1 µM | KM12 27 µM | NCI/ADR-RES 30.8 µM | T47D 2.22 µM | SF-539 25.8 µM | ACHN 30.8 µM | HL-60 27.9 µM | OVCAR-3 18.2 µM | SK-MEL-5 16.9 µM | LOX IMVI 18.9 µM | SNB-19 34.7 µM

N#Cc1c(N)c2c(c(-c3ccccc3)c1-c1ccccc1)C(=O)N(O)C2=O
inactive: TK-10 91.4 µM | MDA-MB-231 > 100 µM | Malme-3M > 100 µM | K562 91.8 µM | UO-31 37 µM | Hs-578T 18.9 µM | SN12C > 100 µM | KM12 29.6 µM | NCI/ADR-RES > 100 µM | T47D 22.8 µM | SF-539 66.5 µM | ACHN > 100 µM | SNB-75 34 µM | HL-60 53.7 µM | OVCAR-3 26.9 µM | SK-MEL-5 25.3 µM | LOX IMVI 89.7 µM | SNB-19 37.8 µM

O=c1c(O)c(-c2cc(O)c(O)cc2O)oc2cc(O)c(C3OC(CO)C(O)C(O)C3O)c(O)c12 (centres undefined)
inactive: TK-10 > 100 µM | MDA-MB-231 > 100 µM | SK-OV-3 > 100 µM | K562 > 100 µM | UO-31 > 100 µM | Hs-578T > 100 µM | SN12C > 100 µM | KM12 > 100 µM | NCI/ADR-RES > 100 µM | T47D > 100 µM | SF-539 > 100 µM | ACHN > 100 µM | SNB-75 45.1 µM | HL-60 > 100 µM | OVCAR-3 > 100 µM | LOX IMVI > 100 µM | SNB-19 > 100 µM

O=C(NC(C(F)(F)F)(C(F)(F)F)P(=O)(Cc1ccccc1)Cc1ccccc1)C(C(F)(F)F)C(F)(F)F
inactive: TK-10 21.8 µM | MDA-MB-231 19.8 µM | Malme-3M 19.1 µM | SK-OV-3 31.8 µM | K562 23 µM | Hs-578T 55.7 µM | SN12C 17.7 µM | KM12 19.5 µM | NCI/ADR-RES 17.9 µM | T47D 34.9 µM | SF-539 20.7 µM | ACHN 19.7 µM | HL-60 22.4 µM | OVCAR-3 31.6 µM | SK-MEL-5 15.4 µM | LOX IMVI 18.1 µM | SNB-19 27.7 µM

O=P1(N(CCCl)CCCl)Oc2c(Cl)cc(Cl)c(Cl)c2Cc2c(Cl)c(Cl)cc(Cl)c2O1
inactive: TK-10 25 µM | MDA-MB-231 42.4 µM | SK-OV-3 43.2 µM | K562 74 µM | UO-31 48.4 µM | Hs-578T 30.3 µM | SN12C 61.9 µM | KM12 42 µM | NCI/ADR-RES 45 µM | T47D > 100 µM | SF-539 > 100 µM | ACHN 51.1 µM | SNB-75 > 100 µM | HL-60 > 100 µM | OVCAR-3 45.2 µM | SK-MEL-5 77.3 µM | LOX IMVI 39.8 µM

CC(=O)OCC1OC(n2c3c(cc(C#N)c2=S)CCCCC3)C(OC(C)=O)C(OC(C)=O)C1OC(C)=O (centres undefined)
inactive: TK-10 > 100 µM | MDA-MB-231 > 100 µM | Malme-3M > 100 µM | K562 > 100 µM | UO-31 > 100 µM | Hs-578T > 100 µM | SN12C > 100 µM | KM12 > 100 µM | NCI/ADR-RES > 100 µM | T47D 29.4 µM | SF-539 > 100 µM | ACHN > 100 µM | SNB-75 99.1 µM | HL-60 > 100 µM | OVCAR-3 > 100 µM | SK-MEL-5 > 100 µM | LOX IMVI > 100 µM | SNB-19 > 100 µM

C[C@H]1CC[C@@H]2[C@@H](C)[C@H]3[C@H](C[C@H]4[C@@H]5CC=C6C[C@@H](O)CC[C@]6(C)[C@H]5CC[C@]34C)N2C1
inactive: TK-10 33 µM | MDA-MB-231 39.4 µM | Malme-3M > 100 µM | SK-OV-3 > 100 µM | UO-31 60.5 µM | Hs-578T 33.3 µM | SN12C > 100 µM | KM12 30.3 µM | NCI/ADR-RES 54.7 µM | T47D 86.9 µM | SF-539 65.9 µM | ACHN 59.8 µM | HL-60 17.5 µM | OVCAR-3 > 100 µM | SK-MEL-5 38.3 µM | LOX IMVI 36.1 µM | SNB-19 97.9 µM

CS(=O)(=O)OCC1CCCCCCCCCCC12SCCCS2 (centres undefined)
inactive: TK-10 > 100 µM | MDA-MB-231 > 100 µM | Malme-3M > 100 µM | SK-OV-3 > 100 µM | K562 > 100 µM | UO-31 > 100 µM | Hs-578T > 100 µM | SN12C > 100 µM | KM12 > 100 µM | NCI/ADR-RES > 100 µM | T47D > 100 µM | SF-539 > 100 µM | ACHN > 100 µM | HL-60 > 100 µM | OVCAR-3 > 100 µM | SK-MEL-5 > 100 µM | LOX IMVI > 100 µM | SNB-19 > 100 µM

Fc1cccc(C2SCC3=Nc4ccccc4CN32)c1 (centres undefined)
inactive: TK-10 67.8 µM | MDA-MB-231 > 100 µM | SK-OV-3 39.6 µM | K562 88.9 µM | UO-31 41.5 µM | Hs-578T > 10 µM | SN12C > 100 µM | KM12 95.5 µM | NCI/ADR-RES 11 µM | T47D 57.3 µM | SF-539 47.5 µM | ACHN 36.9 µM | SNB-75 > 100 µM | HL-60 35.1 µM | OVCAR-3 20.2 µM | SK-MEL-5 17.9 µM | LOX IMVI 40.6 µM | SNB-19 21.6 µM

O=C(O)CCC(=O)Nc1ccc2c(c1)S(=O)(=O)N(CC(=O)O)C2=O
inactive: TK-10 > 100 µM | MDA-MB-231 > 100 µM | Malme-3M 39.2 µM | SK-OV-3 > 100 µM | K562 > 100 µM | UO-31 > 100 µM | Hs-578T > 100 µM | SN12C > 100 µM | KM12 21.9 µM | NCI/ADR-RES > 100 µM | T47D > 100 µM | SF-539 > 100 µM | ACHN > 100 µM | HL-60 > 100 µM | OVCAR-3 > 100 µM | SK-MEL-5 > 100 µM | LOX IMVI > 100 µM | SNB-19 > 100 µM
